The term IC50 denotes the concentration at which inhibition is half-maximal. A higher IC50 goes with a need for much substance.

Data set [1] addresses T1, HLA-DR1 (Homo sapiens, UniProt P01903+P01911, A100R/D57E/F55L/F60I/F76Y/I96L/L162R/M171V/P40L/Q125E/R42F/V115G/Y59C).
T1 construct: endogenous in cells; host or cells: Hom 2 cell line
Kind of data set: Variant to Test A: peptide selectivity binding assay. As to the method:
The method used was a modification of that described by Gorga et al, 1987, J.Biol.Chem. 262, 16087-16094. Human HLA-DR antigens were purified from various cell lines by immunoaffinity chromatography. Briefly, 1×10^9-5×10^9 pelleted cells of the appropriate cell line selected from Hom 2 (source of DR1), BBF (source of DR2), AVL-B (source of DR3), JAH (source of DR4Dw4), JHAF (source of DR4Dw13) or PE117 (source of DR4Dwl4) were solubilised at approximately 4° C. in 50 ml of 5 mM EDTA (sodium salt), 50 mM Tris-HCL pH 7.4, 2% NP40, 150 mM NaCl, 1 mM iodoacetamide, 1 mM PMSF, by homogenisation with 10 strokes of a teflon glass homogeniser. […] Protein content was determined by a Biorad protein assay and purity by SDS-PAGE electrophoresis.
200 nM biotin-FHA307-320 in phosphate buffered saline (PBS) was incubated with either purified HLA-DR1, DR2, DR4Dw4, DR4Dw13 or DR4Dwl4 (2-20 μg/ml) in V-well microtitre plates (Nunc) with or without inhibitor peptides in assay buffer (PBS, 0.01% NP40 (Sigma.)) For DR3 inhibition, 400 nM Biotin-Ahx-(D)Ala-Ala-Ala-Cha-[…](D)Ala-OH [SEQ ID No. 14] was incubated with purified DR3 (20 μg/ml.), and incubated as above. After 48 hours, the incubates were treated, and absorbance readings taken as described in Test A. The inhibitory activity of peptides, expressed as IC50 values, was calculated using Microcal Origin software on a PC.

Data set [2] is described as follows: Aqueous stability of peptide in McIlvaine's citric acid-phosphate buffer.
Method: Approximately 20 ml of McIlvaine's citric acid-phosphate buffer solution at pH 3 or 7.6 containing 0.02% sodium azide is filtered into a 50 ml bottle using a sterile 0.22 μm filter unit and a 20 ml syringe. Approximately 1.2 mg of peptide is accurately weighed in a capped vial. […] The vial is capped and shaken to dissolve the peptide. Using a sterile pipette tip, aliquots of approximately 1 ml of the peptide solution are transferred to 10 HPLC vials, which are then capped. 5 vials are stored at −18 and 37° C. The area of the peptide peak for the solution is determined by HPLC using appropriate standards initially and after storage at −18 and 37° C. for 1, 2, 3 and 4 weeks, using a fresh vial at each time point with duplicate sample injections. The percentage of peptide remaining after storage at 37° C. at each time point is determined from the ratio of the area of the peptide peak at each time point to the initial area.
Data set [3] in a line: Degradation of peptide on in vitro release from an extruded polymer depot.
Method: A solution of McIlvaine's citric acid-phosphate buffer solution at pH 7.6 containing 0.02% sodium azide, is filtered through a 0.22μ filter and stored at 4° C. Approximately 10 mg of extruded polymer depot containing peptide is placed in two small vials and 2 ml of the buffer solution added. The vials are then capped and stored in a water bath at 37° C. for a month. At suitable time points over a month, three 0.6 ml aliquots of release medium are removed from each vial and either analysed by HPLC or stored frozen in an HPLC vial at −18° C. prior to analysis by HPLC. 1.8 ml of the buffer solution is added to each vial containing the depot to replace the release medium that has been removed at each time point.
The average amount of intact peptide in the release medium at each time point is determined by HPLC using duplicate sample injections by comparing the area of the peptide peak in the release media with the area of the peptide peak from standard buffer solutions of peptide at known concentrations. […] The average cumulative in vitro release profile of intact peptide and total peptide (intact peptide and peptide degradation products) is determined from the amounts of intact peptide and peptide degradation products in the release medium at each time point.
The nature of data set [4]: Peptide content of extruded polymer depot formulation (loss on extrusion). The format is physicochemical. As for the experimental part:
About 20 mg of peptide is accurately weighed and sufficient polymer (50/50% molar poly(D,L-lactic acid/glycolic acid) copolymer of approximate weight average molecular weight 20 kD and approximate polydispersity of 1.7 as determined by size exclusion chromatography relative to polystyrene standards) added to produce an approximate 20% w/w mixture. This is dissolved in anhydride-free glacial acetic acid to produce an approximate 10% w/v solution. The solution is freeze dried and the resulting freeze dried product is stored under vacuum prior to use.
About 100 mg of freeze dried material is loaded into the barrel of a small laboratory extruder and the plunger pushed down to consolidate the sample. The extruder is heated to between 90 and 95 ° C. and held at this temperature for 10 minutes before the freeze dried material is extruded under pressure to give a cylindrical extrudate of approximately 1 mm in diameter. […]
Each standard is filtered through a 5 μm Millex PTFE filter and an aliquot of filtrate, together with aliquots of the solutions A, analysed by HPLC using duplicate sample injections. The peptide content of the extruded polymer depot formulation of peptide is calculated from the concentration of peptide in solutions A, which is determined by comparing the area of the peptide peak in solutions A with the area of the peptide peak from the standard solutions.

Where two headings read alike, the source gives them in different places. Bounds are passed on as bounds.

`COCCN(CCOC)C(=O)CN(CC(=O)N(CCOC)CCOC)C(=O)C[C@H](NC(=O)[C@H](C)NC(=O)[C@H](CCCNC(=N)N)NC(=O)[C@H](C)NC(=O)CCCCc1ccccc1)C(=O)N[C@H](C(=O)N[C@@H]1CCN([C@@H](C)C(=O)N[C@@H](C)C(=O)Nc2ccc(CC(N)=O)cc2)C1=O)[C@@H](C)O` [Example 3, Phv-Ala-Arg-Ala-II-Thr-IIIa-Ala-Papa-NH2] came in with an IC50 in data set [1] greater than 100 µM. For the same molecule, the aqueous stability result in data set [2] (pH3) and in data set [2] (pH7.6) was “good aqueous stability” in each case. Also, the “degradation on release from depot formulation” value in data set [3] was “minimal degradation on release”. For the same molecule, in data set [4], the “loss due to degradation on extrusion” value is on record as “minimal loss due to degradation on extrusion”.

In data set [1], `COCCOCCOCCN(CCOCCOCCOC)C(=O)CN(CC(=O)N(CCOCCOCCOC)CCOCCOCCOC)C(=O)C[C@H](NC(=O)[C@H](C)NC(=O)[C@H](C)NC(=O)[C@H](CCCNC(=N)N)NC(=O)CCCCc1ccccc1)C(=O)N[C@H](C(=O)N[C@@H]1CCN([C@@H](C)C(=O)N[C@@H](C)C(=O)Nc2ccc(CC(N)=O)cc2)C1=O)[C@@H](C)O` [Example 6, Phv-Arg-Ala-Ala-II-Thr-IIIa-Ala-Papa-NH2] displayed a concentration for half-maximal inhibition (IC50) greater than 100 µM. Besides, the aqueous stability entry runs as follows: (pH3) “good aqueous stability”; (pH7.6) “good aqueous stability”. Moreover, the “loss due to degradation on extrusion” value in data set [4] is reported as “minimal loss due to degradation on extrusion”.

Values taken from patent US6541453B2, “Peptide derivatives” (Syngenta Limited, priority 1996, dated 2003).
